Measurements reported in patent publication EP4778516A1, “CALCIFICATION ENHANCER FOR OSTEOBLAST MC3T3-E1 CELL” (Watanabe Oyster Laboratory Co., Ltd., priority 2023, dated 2025).

Key:
Assay type in all cases: cell-based, mouse
MC3T3-E1 cells [1] = assay: Osteoblast differentiation assay and Alizarin Red S staining (calcification)
Experimental: MC3T3-E1 cells (10^5 cells/ml medium per well in a 12-well plate) were cultured for 3 days in a-MEM (1.0 ml per well) containing 10% FBS and 1% P/S. Thereafter, the medium was replaced, as previously described, with calcification-promoting medium, that is, a-MEM supplemented with 10% FBS, 1% P/S, L-ascorbic acid ([…]), and 4 mM b- glycerophosphoric acid. DHMBA was added at a concentration of 1 or 10 mM, and the cells were cultured for 18 days, with the medium replaced every 3 days with fresh medium. On day 18 of culture, the cells were rinsed with PBS and fixed by addition of ice-cold 75% ethanol at 4°C for 30 minutes. Then, calcium deposition was visualized by staining with Alizarin Red S (40 mM, pH 6.2). After incubation at room temperature for 30 minutes, the staining solution was removed by thorough washing with distilled water. Stained cells on the plates were photographed under a microscope (×40) (Olympus IX71, Olympus Corp., Tokyo, Japan) and imaged using ImageJ2 software. For quantification, the stained cells in each plate were solubilized by addition of 10% cetylpyridinium chloride solution, and absorbance was measured at 570 nm.

MC3T3-E1 cells [2] = assay: Effects of conditioned medium of LPS-stimulated RAW264.7 cells on MC3T3-E1 cells
Experimental: A conditioned medium was obtained by culturing RAW264.7 cells.
RAW264.7 cells (1×10^5 cells/ml per well in a 24-well plate) were cultured for 3 days after reaching subconfluence in DMEM containing 10% FBS and 1% P/S in the presence or absence of LPS (concentration in the medium: 100 ng/ml). After the cells were cultured, the medium (conditioned medium) was collected.
To evaluate the effects of the conditioned medium on proliferation of MC3T3-E1 cells, MC3T3-E1 cells were cultured for 3 days in a-MEM containing 10% FBS and 1% P/S. The cells were then cultured for 3 days using either the conditioned medium (1 ml, control) cultured without LPS or the conditioned medium (0.25 or 0.50 ml per well, adjusted to 1 ml with normal medium) cultured with LPS in the presence or absence of DHMBA (1 or 10 mM).
Further, to examine the effects on cell death of MC3T3-E1 cells, the cells (1×10^5 cells/ml per well) were cultured for 3 days in a-MEM containing 10% FBS and 1% P/S. After reaching subconfluence, the medium was replaced. The cells were then further cultured for 48 hours in either the normal medium, the conditioned medium (1 ml) cultured without LPS, or the conditioned medium (0.25 or 0.50 ml per well, adjusted to 1 ml with normal medium) with either a reagent vehicle (1% ethanol as final concentration) or DHMBA (1 or 10 mM). After culture, the cells were detached from each culture well, and cell numbers were counted in the same manner as described above.
Further, the effects of Bay 11-7082, which is an NF-kB signaling inhibitor, on proliferation or cell death of MC3T3-E1 cells were investigated. First, to examine the effects of Bay 11-7082 on proliferation of MC3T3-E1 cells, the cells (1×10^5 cells/1 ml per well in a 24-well plate) were cultured for 3 days until reaching subconfluence in the presence of 10% FBS, 1% P/S, and either a reagent vehicle (1% ethanol as final concentration) or Bay 11-7082 (1, 10, 50, 100, or 1000 nM). Next, MC3T3-E1 cells were cultured for 3 days in the presence of the conditioned medium (0.5 ml per well, adjusted to a total of 1 ml with normal medium) with or without Bay 11-7082 (1 or 10 nM) in the presence or absence of DHMBA (10 mM).
In another experiment, to evaluate the effects of Bay 11-7082 on cell death of MC3T3-E1, the cells (1×10^5 cells/1 ml per well in a 24-well plate) were cultured in a-MEM containing 10% FBS and 1% P/S. After culturing for 3 days until reaching subconfluence, the medium was replaced with a-MEM (1 ml) containing either the normal medium or the conditioned medium prepared by adding the normal medium to 0.5 ml per well of the conditioned medium, adjusted to a total volume of 1 ml. The cells were then further cultured for 48 hours in the presence of Bay 11-7082 (1 or 10 nM), or Bay 11-7082 (10 nM) in combination with DHMBA (10 mM). After culture, the cells were detached from each culture well, and cell numbers were counted as described above.

RAW264.7 cells = assay: TNF-a production assay (ELISA); details: LPS 10 or 100 ng/ml, DHMBA 1 or 10 mM; Fig. 7A
Experimental: RAW264.7 cells (1× 10^5/ml per well) were cultured in DMEM containing 10% FBS and 1% P/S in a 24-well plate for 3 days until reaching subconfluence. […] The cells were detached from each culture dish to count the cell numbers as described in the section "Cell proliferation assay". […] The concentration of TNF-a in the medium was analyzed using a mouse TNF-a ELISA kit (catalog no. KHC301) purchased from Cayman Chemical Company (Ann Arbor, MI, USA) in accordance with the manufacturer's instructions. TNF-a production was expressed as the amount of TNF-a secreted into the medium in picograms per milliliter (pg/ml).

NF-kB = NF-kB reporter assay (luciferase); details: Fig. 8C
Experimental: An NF-kB-responsive luciferase reporter assay (pNF-kB-Luc, BD Biosciences) was performed according to the method previously described by the present inventors. MC3T3-E1 cells (2×10^4 cells per well in […] in a 96-well plate) were cultured for 24 hours in a-MEM containing 10% FBS and 1% P/S. After culture, the medium was removed, and the cells were washed twice with a-MEM without FBS or antibiotics. a-MEM ([…]) without FBS or antibiotics was then added to each well containing the cells. A reporter plasmid or an empty vector control (pGL3-Basic) was transfected into MC3T3-E1 cells using Lipofectamine 2000 Reagent (Invitrogen) in a-MEM without FBS or antibiotics. Five hours later, the medium was replaced with a-MEM containing 10% FBS and 1% P/S, and the cells were stimulated with TNF-a (1 or 10 ng/ml) for 24 hours. In parallel, the cells were cultured with either a reagent vehicle (1% ethanol as final concentration) or DHMBA (1 or 10 mM). After culture, the cells were extracted with Passive Lysis Buffer (Promega Corp., Madison, WI), and luciferase activity was measured using a Luciferase Assay System (Promega Corp.) with a microplate reader (Turner Designs, Inc., Sunnyvale, CA, USA). Equal transfection efficiency among all plasmids was validated by using the luciferase reporter plasmid pRL-SV40 (Promega Corp., Madison, WI).

Compound: COc1c(O)cc(CO)cc1O [DHMBA, 3,5-dihydroxy-4-methoxybenzyl alcohol]
- calcification of MC3T3-E1 cells (MC3T3-E1 cells [1]; DHMBA 1 or 10 mM, 18 days in calcification-promoting medium, Alizarin Red, absorbance 570 nm, Figs. 2A and 2B): enhanced
- TNF-a-induced suppression of calcification of osteoblasts (MC3T3-E1 cells [1]; TNF-a 1 ng/ml plus DHMBA 1 or 10 mM, 18 days, Fig. 4): suppressed
- suppressive effect of DHMBA on conditioned-medium-induced suppression of proliferation, in combination with Bay 11-7082 (MC3T3-E1 cells [2]; DHMBA in the presence of Bay 11-7082): not further enhanced
- enhancement of death of MC3T3-E1 cells by the conditioned medium (MC3T3-E1 cells [2]; conditioned medium 0.5 ml, DHMBA 1 or 10 mM, 48 hours, Fig. 6B): suppressed
- inhibition of proliferation of MC3T3-E1 cells by the conditioned medium (MC3T3-E1 cells [2]; conditioned medium with LPS stimulation, DHMBA 1 or 10 mM, 3 days, Fig. 6A): prevented
- LPS-induced increase of production of TNF-a in RAW264.7 cells (RAW264.7 cells): suppressed
- NF-kB promoter activity in MC3T3-E1 cells (NF-kB; DHMBA in the absence of TNF-a): reduced
- TNF-a-induced increase of NF-kB promoter activity in MC3T3-E1 cells (NF-kB; TNF-a 1 or 10 ng/ml plus, 24 hours): suppressed
